In PubChem BioAssay AID328 (DTP/NCI, 2004):
“And” between values parts separate entries of the source, which are not always exact repeats. Identical values can stand only once. Inconclusive results and toxic doses are left out.

System: BDF1 mice, P388 leukemia ip, median survival T/C
Assay: NCI In Vivo Anticancer Drug Screen. Data for tumor model P388 Leukemia (intraperitoneal) in B6D2F1 (BDF1) mice
Details: endpoint: median survival time, higher = longer survival
Method in brief: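 Read-out is survival of treated animals expressed relative to the vehicle group, as a T/C ratio.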

[1] = dose: 100.0 mg/kg/injection, schedule: Q01DX009 (ip), vehicle: saline with Tween-80
[2] = dose: 200.0 mg/kg/injection, schedule: Q01DX009 (ip), vehicle: saline with Tween-80
[3] = dose: 400.0 mg/kg/injection, schedule: Q01DX009 (ip), vehicle: saline with Tween-80
[4] = dose: 100.0 mg/kg/injection, schedule: Q01DX001 (ip), vehicle: saline with Tween-80
[5] = dose: 200.0 mg/kg/injection, schedule: Q01DX001 (ip), vehicle: saline with Tween-80
[6] = dose: 400.0 mg/kg/injection, schedule: Q01DX001 (ip), vehicle: saline with Tween-80
[7] = dose: 200.0 mg/kg/injection, schedule: Q04DX003 (ip), vehicle: Klucel (hydroxypropylcellulose) (HPC)
[8] = dose: 400.0 mg/kg/injection, schedule: Q04DX003 (ip), vehicle: Klucel (hydroxypropylcellulose) (HPC)
[9] = dose: 50.0 mg/kg/injection, schedule: Q04DX003 (ip), vehicle: saline with Tween-80
[10] = dose: 100.0 mg/kg/injection, schedule: Q04DX003 (ip), vehicle: saline with Tween-80
[11] = dose: 200.0 mg/kg/injection, schedule: Q04DX003 (ip), vehicle: saline with Tween-80
[12] = dose: 400.0 mg/kg/injection, schedule: Q04DX003 (ip), vehicle: saline with Tween-80
[13] = dose: 100.0 mg/kg/injection, schedule: Q01DX009 (ip), vehicle: Klucel (hydroxypropylcellulose) (HPC)
[14] = dose: 50.0 mg/kg/injection, schedule: Q01DX009 (ip), vehicle: saline with Tween-80
[15] = dose: 100.0 mg/kg/injection, schedule: Q04DX003 (ip), vehicle: Klucel (hydroxypropylcellulose) (HPC)
[16] = dose: 200.0 mg/kg/injection, schedule: Q01DX009 (ip), vehicle: Klucel (hydroxypropylcellulose) (HPC)
[17] = dose: 400.0 mg/kg/injection, schedule: Q01DX009 (ip), vehicle: Klucel (hydroxypropylcellulose) (HPC)

## Cc1cc(=O)cc(C)n1C
[1]
  T/C: 104 % of control
[2]
  T/C: 100 % of control
[3]
  T/C: 100 % of control

## O=C(Cl)c1cc2ccccc2o1
[4]
  T/C: 91 % of control
[5]
  T/C: 108 % of control
[6]
  T/C: 91 % of control

## CN(C)c1ccc(C=O)c(Oc2ccccc2)c1
dose: 12.5 mg/kg/injection, schedule: Q04DX003 (ip), vehicle: Klucel (hydroxypropylcellulose) (HPC)
  T/C: 91 % of control
dose: 25.0 mg/kg/injection, schedule: Q04DX003 (ip), vehicle: Klucel (hydroxypropylcellulose) (HPC)
  T/C: 108 % of control
dose: 50.0 mg/kg/injection, schedule: Q04DX003 (ip), vehicle: Klucel (hydroxypropylcellulose) (HPC)
  T/C: 91 % of control
[7]
  T/C: 100 % of control
[8]
  T/C: 100 % of control

## CN1C(=O)NC(C)(c2cccs2)C1=O (stereo unspecified)
[9]
  T/C: 96 % of control
[10]
  T/C: 101 % of control
[11]
  T/C: 100 % of control
[12]
  T/C: 94 % of control

## OCCC1CC1=C1CC1 (stereo unspecified)
dose: 25.0 mg/kg/injection, schedule: Q01DX009 (ip), vehicle: Klucel (hydroxypropylcellulose) (HPC)
  T/C: 105 % of control
dose: 50.0 mg/kg/injection, schedule: Q01DX009 (ip), vehicle: Klucel (hydroxypropylcellulose) (HPC)
  T/C: 105 % of control
[13]
  T/C: 110 % of control

## O=C(c1ccccc1)C1OC1c1ccccc1 (stereo unspecified)
[1]
  T/C: 93 % of control
[2]
  T/C: 99 % of control
[3]
  T/C: 100 % of control
dose: 600.0 mg/kg/injection, schedule: Q01DX009 (ip), vehicle: saline with Tween-80
  T/C: 100 % of control

## C[C@H](CCC(=O)O)[C@H]1CC[C@H]2[C@@H]3[C@H](O)C[C@@H]4C[C@H](O)CC[C@]4(C)[C@H]3C[C@H](O)[C@]12C (tested in a mixture with another compound)
dose: 100.0 mg/kg/injection, schedule: Q01DX009 (ip), vehicle: saline
  T/C: 155 % of control
dose: 132.0 mg/kg/injection, schedule: Q04DX003 (ip), vehicle: saline sonified
  T/C: 122 % of control
dose: 200.0 mg/kg/injection, schedule: Q01DX009 (ip), vehicle: other
  T/C: 209 % of control
dose: 200.0 mg/kg/injection, schedule: Q01DX009 (ip), vehicle: saline
  T/C: 190 % of control
dose: 300.0 mg/kg/injection, schedule: Q04DX003 (ip), vehicle: saline sonified
  T/C: 166 % of control
dose: 400.0 mg/kg/injection, schedule: Q04DX003 (ip), vehicle: saline sonified
  T/C: 172 % of control

## CN(C)c1ccc(/C=C/c2ccnc3c(N)cccc23)cc1
dose: 100.0 mg/kg/injection, schedule: Q04DX002 (ip), vehicle: saline with Tween-80
  T/C: 110 % of control
dose: 200.0 mg/kg/injection, schedule: Q04DX002 (ip), vehicle: saline with Tween-80
  T/C: 113 % of control
dose: 400.0 mg/kg/injection, schedule: Q04DX002 (ip), vehicle: saline with Tween-80
  T/C: 116 % of control

## CC(NSc1ccccc1[N+](=O)[O-])C(=O)O (stereo unspecified)
[14]
  T/C: 98 % of control
[1]
  T/C: 113 % of control

## c1ccc(-n2nc3c(c2-c2ccc(OCCN4CCCC4)cc2)CCCc2ccccc2-3)cc1
dose: 25.0 mg/kg/injection, schedule: Q04DX003 (ip), vehicle: saline with Tween-80
  T/C: 120 % of control
[9]
  T/C: 120 % of control
[10]
  T/C: 100 % of control

## Cc1nnc2c(=S)[nH]ccn12
[4]
  T/C: 113 % of control
[5]
  T/C: 106 % of control
[6]
  T/C: 100 % of control

## BrC1CCCCCC(Br)C12OCCO2 (stereo unspecified)
[15]
  T/C: 100 % of control
[7]
  T/C: 95 % of control
[8]
  T/C: 100 % of control

## COc1cc(C=Nc2cccc(C(F)(F)F)c2)ccc1O
[15]
  T/C: 95 % of control
[7]
  T/C: 100 % of control

## NNc1cnc2ccccc2n1
dose: 37.5 mg/kg/injection, schedule: Q04DX003 (ip), vehicle: saline with Tween-80
  T/C: 100 % of control
dose: 75.0 mg/kg/injection, schedule: Q04DX003 (ip), vehicle: saline with Tween-80
  T/C: 191 % of control
dose: 150.0 mg/kg/injection, schedule: Q04DX003 (ip), vehicle: saline with Tween-80
  T/C: 100 % of control

## CN=C(NC#N)NCCSCc1nc[nH]c1C
dose: 12.5 mg/kg/injection, schedule: Q01DX005 (ip), vehicle: Klucel (hydroxypropylcellulose) (HPC)
  T/C: 96 % of control
dose: 25.0 mg/kg/injection, schedule: Q01DX005 (ip), vehicle: Klucel (hydroxypropylcellulose) (HPC)
  T/C: 92 % of control and 116 % of control
dose: 50.0 mg/kg/injection, schedule: Q01DX005 (ip), vehicle: Klucel (hydroxypropylcellulose) (HPC)
  T/C: 101 % of control
dose: 100.0 mg/kg/injection, schedule: Q01DX005 (ip), vehicle: Klucel (hydroxypropylcellulose) (HPC)
  T/C: 93 % of control and 101 % of control
dose: 200.0 mg/kg/injection, schedule: Q01DX005 (ip), vehicle: Klucel (hydroxypropylcellulose) (HPC)
  T/C: 118 % of control
dose: 400.0 mg/kg/injection, schedule: Q01DX005 (ip), vehicle: Klucel (hydroxypropylcellulose) (HPC)
  T/C: 95 % of control

## COc1c(C)cc(Br)c2c1C(CCN(C)S(=O)(=O)Cc1ccccc1)CCC2 (stereo unspecified)
[13]
  T/C: 100 % of control
[16]
  T/C: 110 % of control
[17]
  T/C: 110 % of control

## CC(C)C1=CC2=CC[C@@H]3[C@](C)(CCC[C@@]3(C)C(=O)O)[C@H]2CC1
[1]
  T/C: 100 % of control
[10]
  T/C: 100 % of control
[2]
  T/C: 100 % of control
[11]
  T/C: 100 % of control
[3]
  T/C: 100 % of control
[12]
  T/C: 100 % of control

## CC1CC(O)C2C3(C)CCCC2(COC3=O)C12CCC1(CCOC1=O)O2 (stereo unspecified)
dose: 0.13 mg/kg/injection, schedule: Q01DX009 (ip), vehicle: saline
  T/C: 112 % of control
dose: 0.25 mg/kg/injection, schedule: Q01DX009 (ip), vehicle: saline
  T/C: 104 % of control
dose: 0.5 mg/kg/injection, schedule: Q01DX009 (ip), vehicle: saline
  T/C: 93 % of control
dose: 1.0 mg/kg/injection, schedule: Q01DX009 (ip), vehicle: saline
  T/C: 104 % of control

## C[N+](C)(CC(=O)Nc1ccc(Cl)c(C(F)(F)F)c1)Cc1ccc(Cl)cc1
dose: 25.0 mg/kg/injection, schedule: Q04DX003 (ip), vehicle: saline sonified
  T/C: 110 % of control
dose: 50.0 mg/kg/injection, schedule: Q04DX003 (ip), vehicle: saline sonified
  T/C: 110 % of control
dose: 100.0 mg/kg/injection, schedule: Q04DX003 (ip), vehicle: saline sonified
  T/C: 90 % of control

## O=C1CCCC(=O)N1CCCCCCN1C(=O)CCCC1=O
[14]
  T/C: 104 % of control
[1]
  T/C: 112 % of control

## C[C@]12CCC(=O)C=C1CC[C@@H]1[C@@H]2CC[C@@]2(C)[C@H]1CC[C@]2(C)O
dose: 100.0 mg/kg/injection, schedule: Q01DX009 (sc), vehicle: steriod suspending solution
  T/C: 104 % of control
dose: 100.0 mg/kg/injection, schedule: Q04DX003 (sc), vehicle: steriod suspending solution
  T/C: 105 % of control
dose: 200.0 mg/kg/injection, schedule: Q01DX009 (sc), vehicle: steriod suspending solution
  T/C: 95 % of control
dose: 200.0 mg/kg/injection, schedule: Q04DX003 (sc), vehicle: steriod suspending solution
  T/C: 90 % of control
dose: 400.0 mg/kg/injection, schedule: Q04DX003 (sc), vehicle: steriod suspending solution
  T/C: 115 % of control

## CNc1ccc(C(=O)O)c(Cl)c1
dose: 75.0 mg/kg/injection, schedule: Q04DX003 (ip), vehicle: saline
  T/C: 100 % of control
dose: 150.0 mg/kg/injection, schedule: Q04DX003 (ip), vehicle: saline
  T/C: 95 % of control
dose: 300.0 mg/kg/injection, schedule: Q04DX003 (ip), vehicle: saline
  T/C: 100 % of control

## c1ccc2cc(-c3cc4ccccc4s3)ccc2c1
dose: 50.0 mg/kg/injection, schedule: Q01DX010 (ip), vehicle: saline
  T/C: 95 % of control
[13]
  T/C: 120 % of control
dose: 100.0 mg/kg/injection, schedule: Q01DX010 (ip), vehicle: saline
  T/C: 100 % of control
[16]
  T/C: 120 % of control
dose: 200.0 mg/kg/injection, schedule: Q01DX010 (ip), vehicle: saline
  T/C: 100 % of control
[17]
  T/C: 115 % of control
dose: 400.0 mg/kg/injection, schedule: Q01DX010 (ip), vehicle: saline
  T/C: 100 % of control
